Data published in patent US10753935B2, “Prognostic method and kits useful in said method” (Zelda Therapeutics Operations Pty Ltd, priority 2016, dated 2020).

Columns and labels:
HER2-CB2 heteromers [1] = target: T1, HER2-CB2 heteromers (Homo sapiens, UniProt P34972); assay: In situ proximity ligation assay of HER2-CB2 heteromers in HCC1954 cells; type: cell-based; set-up: HER2-CB2 heteromer expression in HCC1954 cells; endogenous in cells; host or cells: HCC1954; conditions: THC treatment
Experimental: HER2-CB2 heteromer expression in HCC1954 cells. Representative images of the PLA experiments, in response to the indicated treatments.
Cells were grown on glass coverslips and fixed in 4% paraformaldehyde, washed with PBS containing 20 mM glycine, permeabilized with the same buffer containing 0.05% Triton® X-100, and washed successively with PBS. HER2-CB2R heteromers were detected using the Duolink in situ Probemarker kit (Olink, Bioscience, Uppsala, Sweden). After 1 h of incubation at 37° C. with the blocking solution in a preheated humidity chamber, cells were incubated overnight in the antibody dilution medium with a mixture of equal amounts of rabbit anti-CB2 antibody (1:50, Cayman Chemical, Ann Arbor, Mich.) directly linked to a plus PLA probe, and rabbit anti-HER2 antibody (1:50, Santa Cruz Biotechnology, Santa Cruz, Calif., US) directly linked to a minus PLA probe. Cells were washed with wash buffer A at room temperature and incubated in a preheated humidity chamber for 30 min at 37° C. with the ligation solution (Duolink® II ligation stock, 1:5, and Duolink II ligase, 1:40) to induce annealing and ligation of the two DNA probes. Amplification was done with the Duolink II detection reagents red kit, which contains fluorescence nucleotides. After exhaustive washing at room temperature with wash buffer B, cells were mounted using mounting medium with DAPI. […]

HER2-CB2 heteromers [2] = target: T1, HER2-CB2 heteromers; assay: PLA and BRET assays of HER2-CB2 heteromers in BT474 cells; type: cell-based; conditions: THC at concentrations that produce anti-tumor responses, previously reported by the applicants
Experimental: (§1) As discussed in Example 1, we observed these effects using Proximity Ligation assays (PLAs) and Bioluminescence Resonance Energy Transfer (BRET) assays.
(§2) Cells were grown on glass coverslips and fixed in 4% paraformaldehyde, washed with PBS containing 20 mM glycine, permeabilized with the same buffer containing 0.05% Triton® X-100, and washed successively with PBS. HER2-CB2R heteromers were detected using the Duolink in situ Probemarker kit (Olink, Bioscience, Uppsala, Sweden). After 1 h of incubation at 37° C. with the blocking solution in a preheated humidity chamber, cells were incubated overnight in the antibody dilution medium with a mixture of equal amounts of rabbit anti-CB2 antibody (1:50, Cayman Chemical, Ann Arbor, Mich.) directly linked to a plus PLA probe, and rabbit anti-HER2 antibody (1:50, Santa Cruz Biotechnology, Santa Cruz, Calif., US) directly linked to a minus PLA probe. […] Amplification was done with the Duolink II detection reagents red kit, which contains fluorescence nucleotides. […] PLA requires that both receptors be close enough to allow the two different antibody-DNA probes to be able to ligate (<17 nm) ((Soderberg et al., (2008), Methods., 45: 227-232; Trifilieff et al., (2011), BioTechniques, 51: 111-118). If the receptors are within sufficient proximity, a punctate fluorescent signal can be detected by confocal microscopy.

HER2 [3] = assay: HER2 degradation in BT474 cells; type: cell-based, human; conditions: THC treatment, previously observed
Description: as §1
(§3) We have now confirmed this observation by Western blot in HCC1954 cells (FIG. 5).

HER2-HER2 dimers = assay: In situ proximity ligation assay of HER2-HER2 dimers in HCC1954 cells; type: cell-based, human; conditions: THC treatment
Experimental: FIG. 6. HER2-HER2 dimer expression in HCC1954 cells. Representative images of the PLA experiments, in response to the indicated treatments.
as §2

HER2-CB2 heteromers [4] = target: T1, HER2-CB2 heteromers; assay: Co-immunoprecipitation of HER2 and CB2-HA in BT474 cells; type: cell-based; conditions: BT474 cells transfected with CB2-HA; 3 μM THC for 4 h
Experimental: (§4) FIG. 3. Western blot analysis of HER2 and CB2 in the indicated cell lines. Cells were transfected with a CB2-HA encoding plasmid and treated with THC for 4 h. HER2 was then immune-precipitated with an anti-HER2 antibody, and blots were developed with anti-HA antibodies.
(§5) HCC1954 and BT474 cells were transiently transfected with pcDNA3-HA-hCB2 or the corresponding empty vector (pcDNA3), using Fugene HD Transfection Reagent (Promega, Madison, Wis.). 48 h after transfection, cells were treated with 3 μM THC or the corresponding vehicle (DMSO) for 4 h, and lysed using a specific buffer for co-immunoprecipitation (40 mM Hepes pH 7.5, 120 mM NaCl, 1 mM EDTA, 10 mM sodium pyrophosphate, 10 mM sodium glycerophosphate, 50 mM sodium fluoride, 0.5 mM sodium orthovanadate, 0.3% CHAPS and supplemented with 1 mM benzamidine and 0.1 mM PMSF in fresh). Cell lysates (1 mg) were immunoprecipitated using 5 μg of anti-ErbB2 antibody (Neu C-18, Santa Cruz Biotechnology, Santa Cruz, Calif., US) covalently coupled to 5 μL protein G-sepharose. After immunoprecipitation, proteins were separated by SDS-10% polyacrylamide reducing gels and transferred to PVDF membranes. […] Bound antibodies were detected with a donkey anti-rabbit immunoglobulin G (IgG) peroxidase-labeled antibody (GE Healthcare, UK). […]

HER2 [5] = assay: Western blot of HER2 in HCC1954 cells; type: cell-based, human; conditions: THC treatment
Experimental: FIG. 5. Protein expression in HCC1954 cells. Protein expression analysis by Western blot of total and phosphorylated (i.e., activated) HER2 in response to THC.
as §3
HCC1954 cells were treated with RIPA buffer (50 mM Tris, 150 mM NaCl, 1% NP-40, 0.5% sodium deoxycholate, and 0.1% sodium dodecyl sulfate), containing a cocktail of protease inhibitors (pepstatin, leupeptin, aprotinin, quimostatin, antipain, and phenylmethylsulfonyl fluoride) and phosphatase inhibitors (Na3VO4 and NaF; Sigma Chemical Co., St. Louis, Mo.). Proteins separated by sodium dodecyl sulfate-10% polyacrylamide reducing gels were transferred to polyvinylidene difluoride membranes (Bio-Rad Laboratories, Hercules, Calif.). After blocking with 5% skim milk and 1% bovine serum albumin, membranes were incubated with the anti-ErbB2 antiserum (Santa Cruz Biotechnology, Santa Cruz, Calif.) diluted 1:500 for 3 h at room temperature. […] A chemiluminescence detection system (Amersham Pharmacia Biotech, Piscataway, N.J.) was used to reveal peroxidase. Controls were carried out with an anti-actin monoclonal antibody (MAb; Boehringer Mannheim, Indianapolis, Ind.) diluted 1:5,000 followed by an anti-mouse IgG peroxidase-labeled antibody diluted 1:4,000 (Zymed).

HER2-CB2 heteromers [6] = target: T1, HER2-CB2 heteromers; assay: Co-immunoprecipitation of HER2 and CB2-HA in HCC1954 cells; type: cell-based; set-up: HER2-CB2 heteromer expression in HCC1954 cells; endogenous in cells; host or cells: HCC1954; conditions: HCC1954 cells transfected with CB2-HA; 3 μM THC for 4 h
Experimental: as §4, §5

T1 sequence (P34972 whole entry, one chain of several): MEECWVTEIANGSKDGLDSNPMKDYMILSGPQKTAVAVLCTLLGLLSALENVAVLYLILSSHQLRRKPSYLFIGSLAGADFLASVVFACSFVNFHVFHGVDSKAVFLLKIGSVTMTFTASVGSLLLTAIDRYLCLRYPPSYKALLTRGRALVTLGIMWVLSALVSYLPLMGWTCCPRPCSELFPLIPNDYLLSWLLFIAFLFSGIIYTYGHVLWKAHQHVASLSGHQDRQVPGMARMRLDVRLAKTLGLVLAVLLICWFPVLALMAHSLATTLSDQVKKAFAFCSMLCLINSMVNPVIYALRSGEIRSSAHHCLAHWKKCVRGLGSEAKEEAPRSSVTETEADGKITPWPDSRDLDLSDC

CCCCCc1cc(O)c2c(c1)OC(C)(C)[C@@H]1CCC(C)=C[C@@H]21 [THC, Δ^9-tetrahydrocannabinol]
effect on HER2-CB2 heteromers (PLA) (HER2-CB2 heteromers [1]): breaks the heteromers by acting on CB2
effect on HER2-CB2 heteromers (PLA, BRET) (HER2-CB2 heteromers [2]): disrupts HER2-CB2 heteromers
effect on HER2 protein level (HER2 [3]): degradation of HER2
effect on HER2-HER2 dimers (PLA) (HER2-HER2 dimers): disrupts not only HER2-CB2 but also HER2-HER2 dimers
effect on HER2-CB2 heteromers (co-IP) (HER2-CB2 heteromers [4]): disrupts HER2-CB2 heteromers
effect on HER2 protein level (Western blot) (HER2 [5]): degradation of HER2
effect on HER2-CB2 heteromers (co-IP) (HER2-CB2 heteromers [6]): disrupts HER2-CB2 heteromers
